According to patent US10167262B2, “Herbicidal substituted 3-arylpyrazoles” (FMC CORPORATION, priority 2014, dated 2019):

How the values were obtained:
Type in all cases: in vivo
[1] = tested on: ragweed (common ragweed, Ambrosia elatior); experiment: Test C pre-/postemergence greenhouse test, plant response rating 0-100; conditions: Postemergence
How it was run: (§1)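 Visual rating vs controls after 13–15 d greenhouse; 0 = no effect, 100 = complete control. Pre: seeds in loam/sand, treated at planting. Post: seedlings 2–18 cm (1–4 leaf) in peat-based mix. Compounds in surfactant-containing non-phytotoxic solvent.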

[2] = tested on: giant foxtail (Setaria faberii); experiment: as above; conditions: Postemergence
How it was run: as §1

[3] = tested on: Italian ryegrass (Lolium multiflorum); experiment: as above; conditions: Postemergence
How it was run: as §1

[4] = tested on: large (Lg) crabgrass (Digitaria sanguinalis); experiment: as above; conditions: Postemergence
How it was run: as §1

[5] = tested on: blackgrass (Alopecurus myosuroides); experiment: as above; conditions: Postemergence
How it was run: as §1

[6] = tested on: winter wheat (Triticum aestivum); experiment: as above; conditions: Postemergence
How it was run: as §1

[7] = tested on: yellow nutsedge (Cyperus esculentus); experiment: as above; conditions: Postemergence
How it was run: as §1

corn (Zea mays) = experiment: as above; conditions: Postemergence
How it was run: as §1

[8] = tested on: pigweed (Amaranthus retroflexus); experiment: as above; conditions: Postemergence
How it was run: as §1

[9] = tested on: galium (catchweed bedstraw, Galium aparine); experiment: as above; conditions: Postemergence
How it was run: as §1

soybean (Glycine max) = experiment: as above; conditions: Postemergence
How it was run: as §1

[10] = tested on: chickweed (common chickweed, Stellaria media); experiment: Test C postemergence greenhouse test, plant response rating 0-100
How it was run: (§2)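 First, plants were raised in a sphagnum peat, vermiculite and nutrient medium to 1–4 leaves. Next, formulated test compounds were applied over the foliage. Finally, after 13–15 greenhouse days, injury was compared with controls and scored 0–100.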

wild oat (Avena fatua) = experiment: as above
How it was run: as §2

kochia (Kochia scoparia) = experiment: as above
How it was run: as §2

Fc1ccccc1NN=C(c1ccccc1)c1c[nH]nc1-c1cc(Cl)cc(Cl)c1 [Compound 57]
Plant response rating (0 to 100), Ragweed ([1]; 62 g ai/ha): 15 | Plant response rating (0 to 100), Ragweed ([1]; 125 g ai/ha): 65 | Plant response rating, Ragweed ([1]; 250 g ai/ha, scale 0 to 100): 70 | Plant response rating (0 to 100), Foxtail, Giant ([2]; 31 g ai/ha): 0 | Plant response rating (0 to 100), Foxtail, Giant ([2]; 62 g ai/ha): 0 | Plant response rating (0 to 100), Foxtail, Giant ([2]; 125 g ai/ha): 0 | Plant response rating, Foxtail, Giant ([2]; 250 g ai/ha, scale 0 to 100): 5 | Plant response rating (0 to 100), Ryegrass, Italian ([3]; 62 g ai/ha): 0 | Plant response rating (0 to 100), Ryegrass, Italian ([3]; 125 g ai/ha): 0 | Plant response rating, Ryegrass, Italian ([3]; 250 g ai/ha, scale 0 to 100): 0 | Plant response rating (0 to 100), Crabgrass, Large ([4]; 31 g ai/ha): 0 | Plant response rating (0 to 100), Crabgrass, Large ([4]; 62 g ai/ha): 0 | Plant response rating (0 to 100), Crabgrass, Large ([4]; 125 g ai/ha): 0 | Plant response rating, Crabgrass, Large ([4]; 250 g ai/ha, scale 0 to 100): 5 | Plant response rating (0 to 100), Blackgrass ([5]; 31 g ai/ha): 0 | Plant response rating (0 to 100), Blackgrass ([5]; 62 g ai/ha): 0 | Plant response rating (0 to 100), Blackgrass ([5]; 125 g ai/ha): 0 | Plant response rating, Blackgrass ([5]; 250 g ai/ha, scale 0 to 100): 0 | Plant response rating (0 to 100), Wheat ([6]; 62 g ai/ha): 0 | Plant response rating (0 to 100), Wheat ([6]; 125 g ai/ha): 0 | Plant response rating, Wheat ([6]; 250 g ai/ha, scale 0 to 100): 0 | Plant response rating (0 to 100), Nutsedge, Yellow ([7]; 62 g ai/ha): 0 | Plant response rating (0 to 100), Nutsedge, Yellow ([7]; 125 g ai/ha): 0 | Plant response rating, Nutsedge, Yellow ([7]; 250 g ai/ha, scale 0 to 100): 5 | Plant response rating (0 to 100), Corn (corn (Zea mays); 31 g ai/ha): 0 | Plant response rating (0 to 100), Corn (corn (Zea mays); 62 g ai/ha): 0 | Plant response rating (0 to 100), Corn (corn (Zea mays); 125 g ai/ha): 0 | Plant response rating, Corn (corn (Zea mays); 250 g ai/ha, scale 0 to 100): 0 | Plant response rating (0 to 100), Pigweed ([8]; 62 g ai/ha): 70 | Plant response rating, Pigweed ([8]; 250 g ai/ha, scale 0 to 100): 75 | Plant response rating (0 to 100), Galium ([9]; 31 g ai/ha): 0 | Plant response rating (0 to 100), Galium ([9]; 62 g ai/ha): 0 | Plant response rating (0 to 100), Galium ([9]; 125 g ai/ha): 0 | Plant response rating, Galium ([9]; 250 g ai/ha, scale 0 to 100): 0 | Plant response rating (0 to 100), Soybean (soybean (Glycine max); 62 g ai/ha): 0 | Plant response rating (0 to 100), Soybean (soybean (Glycine max); 125 g ai/ha): 0 | Plant response rating, Soybean (soybean (Glycine max); 250 g ai/ha, scale 0 to 100): 0 | Plant response rating (0 to 100), Chickweed ([10]; 31 g ai/ha): 60 | Plant response rating (0 to 100), Chickweed ([10]; 62 g ai/ha): 100 | Plant response rating (0 to 100), Chickweed ([10]; 125 g ai/ha): 100 | Plant response rating, Chickweed ([10]; 250 g ai/ha, scale 0 to 100): 100 | Plant response rating (0 to 100), Oat, Wild (wild oat (Avena fatua); 62 g ai/ha): 0 | Plant response rating (0 to 100), Oat, Wild (wild oat (Avena fatua); 125 g ai/ha): 0 | Plant response rating, Oat, Wild (wild oat (Avena fatua); 250 g ai/ha, scale 0 to 100): 0 | Plant response rating (0 to 100), Kochia (kochia (Kochia scoparia); 62 g ai/ha): 65 | Plant response rating (0 to 100), Kochia (kochia (Kochia scoparia); 125 g ai/ha): 65 | Plant response rating, Kochia (kochia (Kochia scoparia); 250 g ai/ha, scale 0 to 100): 80
